Data from article PMC9501900 (Molecules, 2022).

Key:
[1] = Pharmacokinetics of gefitinib in rats, alone and coadministered with CJ (serum, LC-MS/MS); format: in vivo; conditions: for Change (increase) of AUC0-t of gefitinib / Change (increase) of Cmax of gefitinib: coadministration with CJ (5.0 g/kg of cranberry) vs gefitinib alone, p < 0.05; for Change (increase) of AUC0-t of gefitinib / Change (increase) of Cmax of gefitinib / AUC(0-t) / Cmax / MRT / Tmax: rats; for AUC(0-t) / Cmax / MRT / Tmax: male, Sprague-Dawley, rat, serum, po, 50 mg/kg, mean ± S.E., n = 5
Description: Twelve male Sprague-Dawley rats (300–400 g) were supplied by BioLASCO Taiwan Co., Ltd. […] […] Rats were fasted for 12 h before dosing, and food was offered 3 h after drug administration. […] The serum was collected after centrifugation at 10,000× g for 15 min and stored at −20 °C until analysis.
Briefly, 50 μL of serum was partitioned with an equal volume of ethyl acetate containing erlotinib (0.5 μg/mL) as internal standard. The ethyl acetate layer was evaporated under N2 gas to dryness and reconstituted with 50 μL of acetonitrile containing 0.1% formic acid, and then 5 μL was subject to LC-MS/MS analysis.
The mobile phase consisted of 0.1% formic acid (A) and acetonitrile containing 0.1% formic acid (B), and a gradient elution was programmed as follows: A/B: 80/20 (0–1.0 min), 0/100 (1.0–3.5 min) and 80/20 (3.5–6.5 min). The flow rate was 0.2 mL/ min. Nitrogen was used as sheath gas at 50 arbitrary units and auxiliary gas at 10 arbitrary units. […] ESI-MS spectra were recorded in the positive ion mode.
Pharmacokinetic parameters were calculated by the noncompartment model of Phoenix WinNonlin® (version 8.1 Pharsight Corporation, St. Louis, MO, USA). The peak serum concentration (Cmax) was calculated based on experimental measurement. The areas under the serum concentration–time curves (AUC0-t) from time zero to last were calculated by the trapezoidal rule. Each pharmacokinetic parameter was compared among various treatment groups using one-way analysis of variance (ANOVA) with Scheffe’s test. Other studies were statistically compared using unpaired Student’s t-test. Statistical significance level was set at p < 0.05.

[2] = cited from earlier work
[3] = gefitinib 50 mg/kg oral + water
[4] = gefitinib 50 mg/kg oral coadministered with CJ (5.0 g/kg of cranberry)

Change (increase) of AUC0-t of gefitinib [1] | Change (increase) of Cmax of gefitinib [1] | Change (increase) of AUC0-t of gefitinib ([1]; listed as gefitinib) | Change (increase) of Cmax of gefitinib ([1]; listed as gefitinib) | AUC(0-t) [1, 3] | Cmax [1, 3] | MRT [1, 3] | Tmax [1, 3] | AUC(0-t) [1, 4] | Cmax [1, 4] | MRT [1, 4] | Tmax [1, 4] | Concentrations of O-desmethyl gefitinib in serum ([1]; rat serum samples after oral gefitinib 50 mg/kg, calibration range 0.50–0.03 μg/mL) | Compound | Bioavailability [2] | Elimination half-life [2]
(+55%) | (+28%) | 55% | 28% | 19500 ng·h/mL | 1800 ± 300 ng/mL | 8.52 h | 4.4 h | 30300 ng·h/mL | 2300 ± 200 ng/mL | 9.05 h | 3.6 h | – | COc1cc2ncnc(Nc3ccc(F)c(Cl)c3)c2cc1OCCCN1CCOCC1 [Gefitinib] | 57–59% | > 24 h
– | – | – | – | – | – | – | – | – | – | – | – | below the LLOQ | Oc1cc2ncnc(Nc3ccc(F)c(Cl)c3)c2cc1OCCCN1CCOCC1 [O-desmethyl gefitinib] | – | –
